# ChEMBL document CHEMBL1201862, “PubChem BioAssay data set” (2004)
# Activity calls are given as the source filed them.
# What was measured:
# Genome polyprotein = Genome polyprotein (dengue virus type 2, UniProt P29990); assay: flavivirus cap methylation enzyme inhibition – biochemical, confirmation dose response, primary screen (AID 588689); type: functional
# [1] = molecular target: T1, Carboxy-terminal domain RNA polymerase II polypeptide A small phosphatase 1 (Homo sapiens, UniProt Q9GZU7); assay: CTDSP1 inhibitors, concentration-response, biochemical, absorbance readout, ultra-high-throughput screen actives (AID 540297); type: functional
# T1 sequence (Q9GZU7 whole entry): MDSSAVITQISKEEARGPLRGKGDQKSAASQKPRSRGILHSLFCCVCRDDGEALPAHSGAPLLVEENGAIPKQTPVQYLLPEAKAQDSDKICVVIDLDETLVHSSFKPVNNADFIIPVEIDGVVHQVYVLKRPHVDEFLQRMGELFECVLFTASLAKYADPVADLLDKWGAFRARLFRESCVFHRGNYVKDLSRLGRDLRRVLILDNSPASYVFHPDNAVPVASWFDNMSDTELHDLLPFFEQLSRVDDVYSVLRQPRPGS
# [2] = molecular target: T2, RNA-binding protein pos-1 (Caenorhabditis elegans, UniProt G5EF15); assay: disruptors of C. elegans POS-1 RNA interaction – biochemical, fluorescence polarization, dose response (AID 1964);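 note: purified POS-1 fused to maltose binding protein made in E. coli; potency of compounds blocking POS-1 binding to fluorescent RNA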
# T2 sequence (G5EF15 whole entry): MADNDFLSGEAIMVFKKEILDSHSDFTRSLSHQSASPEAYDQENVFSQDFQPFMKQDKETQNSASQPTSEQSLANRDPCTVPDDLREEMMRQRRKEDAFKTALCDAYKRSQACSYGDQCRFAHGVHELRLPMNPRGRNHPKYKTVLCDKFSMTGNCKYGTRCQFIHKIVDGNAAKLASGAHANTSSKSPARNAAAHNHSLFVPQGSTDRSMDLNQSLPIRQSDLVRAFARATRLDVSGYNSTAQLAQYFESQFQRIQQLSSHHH
# [3] = molecular target: DNA dC->dU-editing enzyme APOBEC-3A (Homo sapiens, UniProt P31941); assay: Dose Response confirmation of small molecule APOBEC3A DNA Deaminase Inhibitors via a fluorescence-based single-stranded DNA deaminase assay. [Related pubchem assays (depositor defined):AID493011, AID493024]; type: functional
# Sequence of DNA dC->dU-editing enzyme APOBEC-3A (P31941 whole entry): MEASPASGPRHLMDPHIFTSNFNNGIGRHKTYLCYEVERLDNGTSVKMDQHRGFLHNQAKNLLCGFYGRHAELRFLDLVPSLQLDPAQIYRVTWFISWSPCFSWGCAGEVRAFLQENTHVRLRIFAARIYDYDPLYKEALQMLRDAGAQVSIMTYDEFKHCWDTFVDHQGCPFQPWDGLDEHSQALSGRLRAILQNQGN
# [4] = molecular target: T3, Zinc finger protein mex-5 (Caenorhabditis elegans, UniProt Q9XUB2); assay: potency of MEX-5 RNA-binding blockers – biochemical, C. elegans, fluorescence polarization, dose response (AID 1960)
# T3 sequence (Q9XUB2 whole entry): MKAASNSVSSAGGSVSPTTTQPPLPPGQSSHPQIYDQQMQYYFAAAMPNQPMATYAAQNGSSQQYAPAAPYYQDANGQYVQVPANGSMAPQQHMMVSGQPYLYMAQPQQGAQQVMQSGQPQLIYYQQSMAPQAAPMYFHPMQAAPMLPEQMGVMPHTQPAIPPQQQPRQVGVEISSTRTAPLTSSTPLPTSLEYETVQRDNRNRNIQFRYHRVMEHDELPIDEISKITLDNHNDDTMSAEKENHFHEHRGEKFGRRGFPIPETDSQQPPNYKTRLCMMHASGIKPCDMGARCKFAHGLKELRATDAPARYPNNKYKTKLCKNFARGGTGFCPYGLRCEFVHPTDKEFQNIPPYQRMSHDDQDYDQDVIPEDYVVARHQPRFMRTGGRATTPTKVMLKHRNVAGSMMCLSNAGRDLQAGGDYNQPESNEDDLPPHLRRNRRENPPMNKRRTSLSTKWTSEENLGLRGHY
# [5] = molecular target: DNA dC->dU-editing enzyme APOBEC-3G (Homo sapiens, UniProt Q9HC16); type: functional;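 note: Dose-response counterscreen measuring inhibition of APOBEC3G DNA deaminase activity, run while confirming APOBEC3A inhibitors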
# Sequence of DNA dC->dU-editing enzyme APOBEC-3G (Q9HC16 whole entry): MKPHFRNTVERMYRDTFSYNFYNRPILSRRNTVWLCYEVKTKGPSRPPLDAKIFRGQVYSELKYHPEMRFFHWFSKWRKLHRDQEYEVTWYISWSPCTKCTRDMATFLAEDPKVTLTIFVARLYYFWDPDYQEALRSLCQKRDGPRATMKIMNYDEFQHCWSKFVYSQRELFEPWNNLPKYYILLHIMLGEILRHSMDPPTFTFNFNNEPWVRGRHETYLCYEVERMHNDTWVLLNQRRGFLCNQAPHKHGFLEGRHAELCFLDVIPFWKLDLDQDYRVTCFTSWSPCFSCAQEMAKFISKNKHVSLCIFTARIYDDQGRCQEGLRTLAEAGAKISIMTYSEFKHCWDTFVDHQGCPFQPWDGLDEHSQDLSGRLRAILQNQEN
# [6] = molecular target: G-protein coupled receptor 55 (Homo sapiens, UniProt Q9Y2T6); assay: inhibition of LPI-stimulated GPR55 beta-arrestin translocation – imaging, U2OS, beta-arrestin-GFP, LPI agonist, primary screen (AID 2013); type: functional;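 note: antagonist potency measured as reduced agonist-driven arrestin aggregation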
# Sequence of G-protein coupled receptor 55 (Q9Y2T6 whole entry): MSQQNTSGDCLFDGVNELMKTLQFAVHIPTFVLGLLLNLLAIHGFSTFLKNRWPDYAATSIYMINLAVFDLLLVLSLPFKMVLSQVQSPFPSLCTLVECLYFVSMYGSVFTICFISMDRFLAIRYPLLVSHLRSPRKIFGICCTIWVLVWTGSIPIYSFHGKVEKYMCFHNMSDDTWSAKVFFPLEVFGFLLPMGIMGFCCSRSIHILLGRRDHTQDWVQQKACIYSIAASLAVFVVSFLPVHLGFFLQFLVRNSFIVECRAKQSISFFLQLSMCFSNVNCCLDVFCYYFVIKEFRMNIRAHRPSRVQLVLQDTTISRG
# [7] = viability of uninfected HEp-2 cells – cell-based, HTS, cytotoxicity control for RSV inhibitor project, dose response (AID 2410); type: functional; conditions: human respiratory syncytial virus
# Escherichia coli = assay: microbe, parasite or virus in culture
# [8] = molecular target: Peroxisome proliferator-activated receptor gamma/Nuclear receptor coactivator 1 (Homo sapiens, UniProt P37231); type: functional;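 note: agonist potency as compounds enhance coactivator SRC-1 recruitment to PPARgamma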
# [9] = molecular target: Peroxisome proliferator-activated receptor gamma/Nuclear receptor coactivator 3 (Homo sapiens, UniProt P37231); type: functional;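 note: agonist potency for raising coactivator recruitment to the receptor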
# Sequence of Peroxisome proliferator-activated receptor gamma/Nuclear receptor coactivator 3 (P37231 whole entry): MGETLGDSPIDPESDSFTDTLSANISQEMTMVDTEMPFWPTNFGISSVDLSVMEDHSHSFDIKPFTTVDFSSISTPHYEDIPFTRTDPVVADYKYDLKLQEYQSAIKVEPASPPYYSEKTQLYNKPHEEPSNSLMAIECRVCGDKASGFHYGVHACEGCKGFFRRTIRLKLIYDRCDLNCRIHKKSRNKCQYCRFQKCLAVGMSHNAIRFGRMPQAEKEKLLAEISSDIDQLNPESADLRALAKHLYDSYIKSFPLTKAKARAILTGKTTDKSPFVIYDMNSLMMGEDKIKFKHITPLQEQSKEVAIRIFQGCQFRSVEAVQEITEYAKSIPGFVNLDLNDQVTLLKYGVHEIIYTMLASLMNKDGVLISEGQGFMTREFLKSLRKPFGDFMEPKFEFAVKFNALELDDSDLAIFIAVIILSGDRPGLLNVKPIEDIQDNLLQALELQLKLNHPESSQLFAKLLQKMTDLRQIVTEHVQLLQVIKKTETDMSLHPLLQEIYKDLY
# Sequence of Peroxisome proliferator-activated receptor gamma/Nuclear receptor coactivator 3 (Q9Y6Q9 whole entry, further chain): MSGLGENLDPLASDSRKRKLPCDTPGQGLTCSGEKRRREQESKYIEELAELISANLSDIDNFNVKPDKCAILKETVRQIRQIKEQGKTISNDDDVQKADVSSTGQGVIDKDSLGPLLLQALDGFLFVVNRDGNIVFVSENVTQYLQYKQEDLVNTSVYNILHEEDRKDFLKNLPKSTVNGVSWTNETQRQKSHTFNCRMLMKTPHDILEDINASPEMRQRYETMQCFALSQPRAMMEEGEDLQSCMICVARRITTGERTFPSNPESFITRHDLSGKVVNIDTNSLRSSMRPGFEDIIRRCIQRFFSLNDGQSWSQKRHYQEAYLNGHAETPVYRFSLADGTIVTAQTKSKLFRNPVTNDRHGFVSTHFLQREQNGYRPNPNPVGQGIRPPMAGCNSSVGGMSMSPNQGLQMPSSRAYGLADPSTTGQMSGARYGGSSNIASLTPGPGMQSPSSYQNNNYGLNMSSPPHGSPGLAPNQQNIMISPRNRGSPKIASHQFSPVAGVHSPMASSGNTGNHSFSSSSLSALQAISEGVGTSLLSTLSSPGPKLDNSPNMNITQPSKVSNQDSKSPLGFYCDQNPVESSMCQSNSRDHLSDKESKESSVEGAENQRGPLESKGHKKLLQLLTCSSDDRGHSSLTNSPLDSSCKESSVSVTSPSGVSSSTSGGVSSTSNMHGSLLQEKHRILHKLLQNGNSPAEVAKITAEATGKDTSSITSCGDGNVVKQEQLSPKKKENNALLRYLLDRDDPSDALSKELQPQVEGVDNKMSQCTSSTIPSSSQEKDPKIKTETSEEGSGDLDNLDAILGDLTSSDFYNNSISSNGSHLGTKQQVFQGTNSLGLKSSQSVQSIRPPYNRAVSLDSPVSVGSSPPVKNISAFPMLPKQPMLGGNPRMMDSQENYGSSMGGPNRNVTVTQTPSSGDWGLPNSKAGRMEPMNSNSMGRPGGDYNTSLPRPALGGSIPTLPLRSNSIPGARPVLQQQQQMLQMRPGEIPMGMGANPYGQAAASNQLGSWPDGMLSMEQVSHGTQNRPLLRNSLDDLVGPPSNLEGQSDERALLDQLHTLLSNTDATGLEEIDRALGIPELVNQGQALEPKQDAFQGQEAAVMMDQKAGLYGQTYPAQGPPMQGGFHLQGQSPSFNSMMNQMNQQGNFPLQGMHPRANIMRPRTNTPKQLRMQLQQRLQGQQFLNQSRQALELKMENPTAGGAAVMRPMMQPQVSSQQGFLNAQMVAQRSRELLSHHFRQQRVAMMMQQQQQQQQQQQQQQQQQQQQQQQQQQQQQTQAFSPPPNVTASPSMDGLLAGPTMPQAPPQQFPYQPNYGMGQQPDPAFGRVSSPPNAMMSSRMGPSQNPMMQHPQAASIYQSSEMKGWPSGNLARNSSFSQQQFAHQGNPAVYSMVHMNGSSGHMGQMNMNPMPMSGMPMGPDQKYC
# [10] = molecular target: Peroxisome proliferator-activated receptor gamma/Nuclear receptor coactivator 2 (Homo sapiens, UniProt P37231); type: functional;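 note: agonist potency for raising coactivator recruitment to the receptor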
# [11] = molecular target: Induced myeloid leukemia cell differentiation protein Mcl-1 (Homo sapiens, UniProt Q07820); type: functional
# Sequence of Induced myeloid leukemia cell differentiation protein Mcl-1 (Q07820 whole entry): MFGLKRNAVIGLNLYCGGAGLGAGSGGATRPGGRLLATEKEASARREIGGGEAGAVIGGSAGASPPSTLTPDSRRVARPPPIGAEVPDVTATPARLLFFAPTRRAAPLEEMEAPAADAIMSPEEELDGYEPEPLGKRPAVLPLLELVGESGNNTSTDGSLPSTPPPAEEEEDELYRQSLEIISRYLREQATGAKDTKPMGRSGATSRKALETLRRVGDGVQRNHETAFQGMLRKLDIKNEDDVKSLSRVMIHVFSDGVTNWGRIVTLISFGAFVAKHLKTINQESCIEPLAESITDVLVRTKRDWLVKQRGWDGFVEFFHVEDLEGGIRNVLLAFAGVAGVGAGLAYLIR
# HEK293 [12] = assay: cells; type: functional, cell-based; conditions: Homo sapiens
# [13] = molecular target: Nucleotide-binding oligomerization domain-containing protein 2 (Homo sapiens, UniProt Q9HC29); assay: inhibition of NOD2-driven NF-kB reporter – cell-based, luminescence, uHTS, HEK293 (AID 1566); type: functional
# Sequence of Nucleotide-binding oligomerization domain-containing protein 2 (Q9HC29 whole entry, the tested form may be a part): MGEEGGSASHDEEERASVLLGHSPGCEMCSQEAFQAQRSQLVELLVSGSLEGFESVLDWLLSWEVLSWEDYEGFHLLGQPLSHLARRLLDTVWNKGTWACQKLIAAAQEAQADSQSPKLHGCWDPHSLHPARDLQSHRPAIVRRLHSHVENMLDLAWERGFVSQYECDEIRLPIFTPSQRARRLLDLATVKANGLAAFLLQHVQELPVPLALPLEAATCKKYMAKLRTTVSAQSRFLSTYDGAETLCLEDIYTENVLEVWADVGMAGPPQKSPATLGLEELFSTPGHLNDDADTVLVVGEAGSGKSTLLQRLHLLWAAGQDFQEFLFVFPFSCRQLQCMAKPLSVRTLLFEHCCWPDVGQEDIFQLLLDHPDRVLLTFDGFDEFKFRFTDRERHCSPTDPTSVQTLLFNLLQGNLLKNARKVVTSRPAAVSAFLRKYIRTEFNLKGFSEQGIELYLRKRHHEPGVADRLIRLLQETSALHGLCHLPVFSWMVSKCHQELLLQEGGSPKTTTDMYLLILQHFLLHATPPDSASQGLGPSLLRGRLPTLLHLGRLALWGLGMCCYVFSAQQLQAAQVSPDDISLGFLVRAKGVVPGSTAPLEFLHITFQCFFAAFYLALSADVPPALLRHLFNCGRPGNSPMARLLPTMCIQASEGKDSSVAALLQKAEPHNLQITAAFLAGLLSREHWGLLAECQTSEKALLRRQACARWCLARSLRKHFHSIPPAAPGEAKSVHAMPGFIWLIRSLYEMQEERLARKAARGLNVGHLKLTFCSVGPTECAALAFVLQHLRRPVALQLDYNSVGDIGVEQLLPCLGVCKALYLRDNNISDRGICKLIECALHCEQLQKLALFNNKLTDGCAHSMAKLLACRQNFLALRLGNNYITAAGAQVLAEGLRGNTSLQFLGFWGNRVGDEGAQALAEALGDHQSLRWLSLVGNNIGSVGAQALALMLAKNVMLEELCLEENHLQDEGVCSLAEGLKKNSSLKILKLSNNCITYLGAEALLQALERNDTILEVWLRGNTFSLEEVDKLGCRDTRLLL
# HEK293 [14] = assay: cells; type: functional, cell-based; conditions: Homo sapiens; remark: listed apart in the source
# HEK293 [15] = assay: NOD2 signaling inhibitors in MDP-stimulated cells, cell-based, uHTS, luminescence (AID 2001); type: functional; conditions: Homo sapiens
# HEK293 [16] = assay: inhibition of NOD1-driven NF-kB reporter – cell-based, luminescence, uHTS, primary screen (AID 1578); type: functional; conditions: Homo sapiens
# HEK293 [17] = assay: cells; type: functional, cell-based; conditions: Homo sapiens; remark: listed apart in the source
# [18] = molecular target: T4, Alkaline phosphatase, tissue-nonspecific isozyme (Homo sapiens, UniProt P05186); assay: potency against alkaline phosphatase TNAP – biochemical, luminescent, dose response, SAR follow-up (AID 1056)
# T4 sequence (P05186 whole entry): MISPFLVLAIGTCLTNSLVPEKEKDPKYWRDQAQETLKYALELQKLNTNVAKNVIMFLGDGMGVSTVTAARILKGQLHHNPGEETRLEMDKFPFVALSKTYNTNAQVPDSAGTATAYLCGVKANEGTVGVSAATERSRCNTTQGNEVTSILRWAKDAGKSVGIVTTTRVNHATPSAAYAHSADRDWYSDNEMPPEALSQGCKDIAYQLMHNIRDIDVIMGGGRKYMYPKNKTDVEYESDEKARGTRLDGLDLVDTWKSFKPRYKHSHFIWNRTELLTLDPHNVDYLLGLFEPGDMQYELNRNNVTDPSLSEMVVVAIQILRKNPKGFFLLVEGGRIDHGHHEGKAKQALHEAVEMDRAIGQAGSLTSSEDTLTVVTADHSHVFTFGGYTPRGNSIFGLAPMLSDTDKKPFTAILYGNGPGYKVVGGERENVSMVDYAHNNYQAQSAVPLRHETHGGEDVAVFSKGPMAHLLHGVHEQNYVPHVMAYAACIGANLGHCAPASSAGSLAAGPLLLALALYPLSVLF
# [19] = molecular target: T5, Rac GTPase-activating protein 1 (Homo sapiens, UniProt Q9H0H5); assay: blockers of MgcRacGAP-driven Rac1 GTP hydrolysis – biochemical, ADP Hunter fluorescence, primary and confirmatory, confirmation (AID 624330); type: functional
# T5 sequence (Q9H0H5 whole entry): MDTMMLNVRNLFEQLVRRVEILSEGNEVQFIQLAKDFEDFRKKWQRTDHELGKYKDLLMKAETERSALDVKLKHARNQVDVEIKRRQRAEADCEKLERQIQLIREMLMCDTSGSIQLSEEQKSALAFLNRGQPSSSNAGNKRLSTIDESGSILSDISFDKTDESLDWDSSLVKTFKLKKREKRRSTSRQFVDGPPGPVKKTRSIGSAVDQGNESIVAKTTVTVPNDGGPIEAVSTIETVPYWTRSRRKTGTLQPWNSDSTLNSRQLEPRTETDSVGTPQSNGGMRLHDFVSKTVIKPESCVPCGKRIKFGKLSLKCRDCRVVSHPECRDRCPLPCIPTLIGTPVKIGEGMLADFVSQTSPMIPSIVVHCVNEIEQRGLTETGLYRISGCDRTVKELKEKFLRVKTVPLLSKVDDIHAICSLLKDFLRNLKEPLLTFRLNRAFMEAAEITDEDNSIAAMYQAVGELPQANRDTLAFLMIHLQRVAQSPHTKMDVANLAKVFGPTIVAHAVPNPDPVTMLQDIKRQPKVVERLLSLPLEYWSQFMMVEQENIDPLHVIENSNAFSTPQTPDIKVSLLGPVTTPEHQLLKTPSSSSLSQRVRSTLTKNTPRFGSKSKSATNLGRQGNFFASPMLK
# Large T antigen = Large T antigen (Simian virus 40, UniProt P03070); type: functional, Betapolyomavirus macacae;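 note: Confirmatory-stage PubChem screen for compounds that inhibit SV40 T antigen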
# Cytochrome P450 2C9 = Cytochrome P450 2C9 (Homo sapiens, UniProt P11712)
# Sequence of Cytochrome P450 2C9 (P11712 whole entry): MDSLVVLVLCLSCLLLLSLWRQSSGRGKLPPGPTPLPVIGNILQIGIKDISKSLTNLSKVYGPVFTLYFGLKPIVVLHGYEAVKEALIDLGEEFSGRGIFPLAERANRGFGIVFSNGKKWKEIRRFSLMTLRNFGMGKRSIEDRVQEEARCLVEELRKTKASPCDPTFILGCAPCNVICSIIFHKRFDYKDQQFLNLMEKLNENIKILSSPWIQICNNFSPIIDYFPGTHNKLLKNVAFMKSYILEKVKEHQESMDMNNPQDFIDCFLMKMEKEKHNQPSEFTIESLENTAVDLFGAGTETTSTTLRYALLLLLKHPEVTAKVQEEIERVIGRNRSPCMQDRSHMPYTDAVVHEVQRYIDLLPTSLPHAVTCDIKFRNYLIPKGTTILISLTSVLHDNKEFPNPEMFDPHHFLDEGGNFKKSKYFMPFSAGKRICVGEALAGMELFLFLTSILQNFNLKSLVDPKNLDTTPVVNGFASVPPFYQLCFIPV
# [20] = fluconazole-exposed Candida albicans growth modulators – fluorescence, retest, confirmation (AID 2467); type: functional, cell-based
# [21] = NIH-3T3 fibroblast cytotoxicity, dose response, cytotoxicity control, cell-based, fluorescence, Alamar Blue, secondary assay (AID 2327); type: functional;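 note: NIH-3T3 mouse fibroblasts cultured with fluconazole at 8 µg/mL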
# [22] = molecular target: T6, Ubiquitin-conjugating enzyme E2 N (Homo sapiens, UniProt P61088); type: functional;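 note: Dose-response confirmation in a TR-FRET assay detecting UBC13-driven polyubiquitin chain formation, inhibition measured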
# T6 sequence (P61088 whole entry): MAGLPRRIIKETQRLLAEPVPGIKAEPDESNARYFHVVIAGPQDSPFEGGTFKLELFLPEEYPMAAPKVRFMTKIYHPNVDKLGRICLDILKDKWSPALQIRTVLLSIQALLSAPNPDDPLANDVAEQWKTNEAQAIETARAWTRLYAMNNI
# [23] = NIH3T3 cell viability loss – ATP luminescence, mouse fibroblasts, counter-screen, dose response (AID 2010); type: functional, cell-based;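 note: cells exposed to compound for about 90 hours before reading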
# [24] = Trypanosoma cruzi growth suppression in host cells – NIH3T3 host cells, beta-gal luminescence, confirmation (AID 2044); type: functional, cell-based;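 note: intracellular parasites grown in NIH/3T3 mouse fibroblasts as host cells; luminescent beta-galactosidase reporter signal from transgenic T. cruzi replicating inside host cells; inhibitors lower the luminescence signal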
structure (smiles),measurement,setting,value
Cc1cc(C(=O)O)ccc1-c1ccc(/C=C2\NC(=O)N(Cc3ccc(F)cc3)C2=O)o1,IC50,Genome polyprotein,> 100 µM (active)
same,IC50,[1],3.42 µM (active)
same,EC50,[2],195 µM (active)
same,IC50,[3],20.8 µM (active)
same,EC50,[4],191 µM (active)
same,IC50,[5],42 µM (active)
COc1cc(NS(=O)(=O)c2ccc(Nc3nc(-c4ccccc4)cs3)cc2)nc(OC)n1,IC50,[6],4.49 µM (active)
same,CC50,[7],11.3 µM (active)
CC(C)(C)OC(=O)[C@H](Cc1ccccc1)NC(=O)c1[nH]cnc1C(=O)NC1CCN(C(=O)OC(C)(C)C)CC1,IC50,[6],5.3 µM (active)
same,AC50,Escherichia coli,19 µM (active)
CNC(=O)c1ccc(NC(=O)CC23CC4CC(CC(C4)C2)C3)cc1,IC50,[6],3.14 µM (active)
CN(CP(=O)(O)CN(C)S(C)(=O)=O)S(C)(=O)=O,EC50,[8],> 79.4 µM (not active)
same,EC50,[9],> 79.4 µM (not active)
same,EC50,[10],> 79.4 µM (not active)
CC(C)(O)C#Cc1ccc(CN2CCN(C3CCCCC3)C(CCO)C2)cc1 (stereo not given),IC50,[11],21.2 µM (not active)
same,EC50,[8],> 79.4 µM (not active)
same,EC50,[9],> 79.4 µM (not active)
same,EC50,[10],> 79.4 µM (not active)
Cc1ccc(S(=O)(=O)/C(=C/Cl)NC(=O)c2ccccc2)cc1,IC50,HEK293 [12],3.6 µM (active)
same,EC50,[13],14.3 µM (active)
same,IC50,HEK293 [14],> 20 µM (inactive)
same,IC50,HEK293 [15],3.32 µM (active)
same,EC50,HEK293 [16],6.37 µM (active)
same,IC50,HEK293 [17],> 20 µM (inactive)
CCCCn1c(N)c(N(CCOC)C(=O)c2cc(-c3ccc(OC)c(OC)c3)nc3ccccc23)c(=O)[nH]c1=O,IC50,[3],7.62 µM (active)
same,IC50,[5],9.16 µM (active)
O=C(Cn1ccnc1-c1ccccc1)c1ccc(O)c(O)c1,IC50,[18],> 100 µM (inactive)
O=C(/C=C/c1ccco1)N1CCN(S(=O)(=O)c2cccc([N+](=O)[O-])c2)CC1,IC50,[3],15.5 µM (active)
same,IC50,[5],23.6 µM (active)
O=C(N/N=C/c1ccc(O)cc1)c1csc2ccccc12,IC50,[19],42.3 µM (active)
same,IC50,Large T antigen,13.3 µM (active)
same,EC50,[8],> 79.4 µM (not active)
same,AC50,Cytochrome P450 2C9,inconclusive
same,EC50,[9],> 79.4 µM (not active)
same,EC50,[10],> 79.4 µM (not active)
Cc1ccc(O)c(/N=C/c2cc(Cc3ccccc3)cc([N+](=O)[O-])c2O)c1,EC50,[20],3.37 µM (active)
same,EC50,[21],13.8 µM (active)
same,IC50,HEK293 [12],> 20 µM (inactive)
same,IC50,[19],37.8 µM (active)
same,EC50,[13],9.92 µM (active)
same,IC50,HEK293 [14],> 20 µM (inactive)
same,IC50,HEK293 [15],12.4 µM (inactive)
same,EC50,HEK293 [16],6.21 µM (active)
same,IC50,HEK293 [17],> 20 µM (inactive)
Cn1c(=O)c2c(ncn2Cc2ccccc2)n(C)c1=O,IC50,[22],> 20 µM (inactive)
COc1ccc(/C=N/NS(=O)(=O)c2ccc(F)cc2)cc1COc1cc(F)ccc1[N+](=O)[O-],IC50,HEK293 [12],6.45 µM (active)
same,EC50,[23],> 60 µM (inconclusive)
same,EC50,[24],2.19 µM (active)
same,EC50,[13],> 20 µM (inactive)
same,IC50,HEK293 [14],> 20 µM (inactive)
same,IC50,HEK293 [15],> 20 µM (inactive)
same,EC50,HEK293 [16],> 20 µM (inactive)
same,IC50,HEK293 [17],> 20 µM (inactive)
NC(=S)n1[nH]c(-c2ccc([N+](=O)[O-])cc2)c(/N=N/c2ccccc2[N+](=O)[O-])c1=O,IC50,[11],23.2 µM (active)
same,IC50,[1],1.46 µM (active)
